IC50 data for 19 molecules are collected here from patent US20250144223A1, “PROTEIN DEGRADATION COMPOUND BASED ON NAMPT TARGET PROTEIN AND APPLICATION THEREOF” (GLUETACS THERAPEUTICS (SHANGHAI) CO., LTD., priority 2021, published 2025).

What is called IC50 is the midpoint of a concentration-inhibition curve. The low end stands for greater potency, the high end for weaker potency.

The assay deals with Jurkat. The experiment in a line: CellTiter-Glo Luminescent Cell Viability Assay, half inhibitory concentration (IC50) on tumor cell proliferation. Format: cell-based. The settings on record: Homo sapiens, Jurkat cells, 72 h treatment. Here is the method:
The tumor cells used herein were cultured in a cell culture medium at 37° C. in an incubator with 5% CO2, where the cell culture medium was supplemented with 10% FBS, as well as penicillin at a final concentration of 100 U/mL and streptomycin at a final concentration of 100 μg/mL. Prior to experimentation, all cells used were identified as correct cells by STR cells, and were negative for mycoplasma through routine testing.
IC50 values of the compounds of the present disclosure (including the compounds in Table 1 and compounds of examples) were measured using the CellTiter-Glo® Luminescent Cell Viability Assay kit from Promega Corporation. Assay details are as follows: Cells were seeded in 100 μL RPMI1640 medium containing serum at a density of 20,000 cells/well. After 24 h, the inoculated cells were treated with the compounds of the present disclosure which were serially diluted. After the cells were treated with the compounds of the present disclosure for 72 h, the CellTiter-Glo® reagent was added to the culture medium for cell viability assessment according to the instructions provided with the kit. DMSO served as the negative control, and FK866 inhibitor was used as the positive control, both treated with the same protocol as the compounds of the present disclosure. The growth inhibition of the compounds of the present disclosure on cells was plotted by Prism Graphpad software, and the IC50 values of the compounds of the present disclosure were calculated therefrom.
For orientation: Cellular ATP, detected with luciferase, serves as a proxy for viable cell number.
In turn, `O=C(/C=C/c1cccnc1)NCCCCC1CCN(C(=O)c2ccc(N3CCN(CCCCCCCSc4cccc5c4CN(C4CCC(=O)NC4=O)C5=O)CC3)cc2)CC1` (stereo not shown) [SIAIS630134, (E)-N-(4-(1-(4-(4-(7-((2-(2,6-dioxopiperidin-3-yl)-1-oxoisoindolin-4-yl)thio)heptyl)piperazin-1-yl)benzoyl)piperidin-4-yl)butyl)-3-(pyridin-3-yl)acrylamide] returned an IC50 of 7.28 nM. The result for `O=C(/C=C/c1cccnc1)NCCCCC1CCN(C(=O)c2ccc(N3CCN(CCCCCCCCSc4cccc5c4CN(C4CCC(=O)NC4=O)C5=O)CC3)cc2)CC1` (stereo not shown) [SIAIS630135, (E)-N-(4-(1-(4-(4-(8-((2-(2,6-dioxopiperidin-3-yl)-1-oxoisoindolin-4-yl)thio)octyl)piperazin-1-yl)benzoyl)piperidin-4-yl)butyl)-3-(pyridin-3-yl)acrylamide] reads 4.02 nM; that for `O=C(/C=C/c1cccnc1)NCCCCC1CCN(C(=O)c2ccc(N3CCN(CCCCCCCCCCCSc4cccc5c4CN(C4CCC(=O)NC4=O)C5=O)CC3)cc2)CC1` (stereo not shown) [SIAIS630136, (E)-N-(4-(1-(4-(4-(11-((2-(2,6-dioxopiperidin-3-yl)-1-oxoisoindolin-4-yl)thio)undecyl)piperazin-1-yl)benzoyl)piperidin-4-yl)butyl)-3-(pyridin-3-yl)acrylamide], 64.5 nM. As for `Cc1ncsc1-c1ccc(CNC(=O)[C@@H]2C[C@@H](O)CN2C(=O)[C@@H](NC(=O)CCOCCOCCC(=O)N2CCN(c3ccc(C(=O)N4CCC(CCCCNC(=O)/C=C/c5cccnc5)CC4)cc3)CC2)C(C)(C)C)cc1` [SIAIS631011, (2S,4R)-1-((S)-3,3-dimethyl-2-(3-(2-(3-oxo-3-(4-(4-(4-(4-((E)-3-(pyridin-3-yl)acrylamido)butyl)piperidine-1-carbonyl)phenyl)piperazin-1-yl)propoxy)ethoxy)propanamido)butanoyl)-4-hydroxy-N-(4-(4-methylthiazol-5-yl)benzyl)pyrrolidine-2-carboxamide], it took 140 nM to reach half-maximal inhibition (IC50). Take `O=C(/C=C/c1cccnc1)NCCCCN1CCN(C(=O)c2ccc(N3CCN(CCCCCC#Cc4cccc5c4CN(C4CCC(=O)NC4=O)C5=O)CC3)cc2)CC1` (stereo not shown) [SIAIS631045, (E)-N-(4-(4-(4-(4-(7-(2-(2,6-dioxopiperidin-3-yl)-1-oxoisoindolin-4-yl)hept-6-yn-1-yl)piperazin-1-yl)benzoyl)piperazin-1-yl)butyl)-3-(pyridin-3-yl)acrylamide]: half-maximal inhibition (IC50) was put at 80 nM. The result for `O=C(/C=C/c1cccnc1)NCCCCC1CCN(C(=O)c2ccc(N3CCN(CCSc4cccc5c4C(=O)N(C4CCC(=O)NC4=O)C5=O)CC3)cc2)CC1` (stereo not shown) [SIAIS631068, (E)-N-(4-(1-(4-(4-(2-((2-(2,6-dioxopiperidin-3-yl)-1,3-dioxoisoindolin-4-yl)thio)ethyl)piperazin-1-yl)benzoyl)piperidin-4-yl)butyl)-3-(pyridin-3-yl)acrylamide] reads 74.4 nM; that for `O=C(/C=C/c1cccnc1)NCCCCC1CCN(C(=O)c2ccc(N3CCN(CCCSc4cccc5c4C(=O)N(C4CCC(=O)NC4=O)C5=O)CC3)cc2)CC1` (stereo not shown) [SIAIS631069, (E)-N-(4-(1-(4-(4-(3-((2-(2,6-dioxopiperidin-3-yl)-1,3-dioxoisoindolin-4-yl)thio)propyl)piperazin-1-yl)benzoyl)piperidin-4-yl)butyl)-3-(pyridin-3-yl)acrylamide], 71.2 nM; that for `O=C(/C=C/c1cccnc1)NCCCCC1CCN(C(=O)c2ccc(N3CCN(CCCCSc4cccc5c4C(=O)N(C4CCC(=O)NC4=O)C5=O)CC3)cc2)CC1` (stereo not shown) [SIAIS631070, (E)-N-(4-(1-(4-(4-(4-((2-(2,6-dioxopiperidin-3-yl)-1,3-dioxoisoindolin-4-yl)thio)butyl)piperazin-1-yl)benzoyl)piperidin-4-yl)butyl)-3-(pyridin-3-yl)acrylamide], 62.9 nM. In turn, `O=C(/C=C/c1cccnc1)NCCCCC1CCN(C(=O)c2ccc(N3CCN(CCCCCSc4cccc5c4C(=O)N(C4CCC(=O)NC4=O)C5=O)CC3)cc2)CC1` (stereo not shown) [SIAIS631071, (E)-N-(4-(1-(4-(4-(5-((2-(2,6-dioxopiperidin-3-yl)-1,3-dioxoisoindolin-4-yl)thio)pentyl)piperazin-1-yl)benzoyl)piperidin-4-yl)butyl)-3-(pyridin-3-yl)acrylamide] displayed an IC50 of 635 nM.

Regarding `O=C(/C=C/c1cccnc1)NCCCCC1CCN(C(=O)c2ccc(N3CCN(CCCCCCSc4cccc5c4C(=O)N(C4CCC(=O)NC4=O)C5=O)CC3)cc2)CC1` (stereo not shown) [SIAIS631072, (E)-N-(4-(1-(4-(4-(6-((2-(2,6-dioxopiperidin-3-yl)-1,3-dioxoisoindolin-4-yl)thio)hexyl)piperazin-1-yl)benzoyl)piperidin-4-yl)butyl)-3-(pyridin-3-yl)acrylamide], the IC50 is 63 nM. The value for `O=C(/C=C/c1cccnc1)NCCCCC1CCN(C(=O)c2ccc(N3CCN(CCCCCCCCSc4cccc5c4C(=O)N(C4CCC(=O)NC4=O)C5=O)CC3)cc2)CC1` (stereo not shown) [SIAIS631073, (E)-N-(4-(1-(4-(4-(8-((2-(2,6-dioxopiperidin-3-yl)-1,3-dioxoisoindolin-4-yl)thio)octyl)piperazin-1-yl)benzoyl)piperidin-4-yl)butyl)-3-(pyridin-3-yl)acrylamide] was 62.5 nM; that for `O=C(/C=C/c1cccnc1)NCCCCC1CCN(C(=O)c2ccc(N3CCN(CCCCCCCSc4cccc5c4C(=O)N(C4CCC(=O)NC4=O)C5=O)CC3)cc2)CC1` (stereo not shown) [SIAIS631078, (E)-N-(4-(1-(4-(4-(7-((2-(2,6-dioxopiperidin-3-yl)-1,3-dioxoisoindolin-4-yl)thio)heptyl)piperazin-1-yl)benzoyl)piperidin-4-yl)butyl)-3-(pyridin-3-yl)acrylamide] was 62.2 nM; that for `O=C(/C=C/c1cccnc1)NCCCCC1CCN(C(=O)c2ccc(N3CCN(C(=O)CCOCCNc4cccc5c4C(=O)N(C4CCC(=O)NC4=O)C5=O)CC3)cc2)CC1` (stereo not shown) [SIAIS631079, (E)-N-(4-(1-(4-(4-(3-(2-((2-(2,6-dioxopiperidin-3-yl)-1,3-dioxoisoindolin-4-yl)amino)ethoxy)propanoyl)piperazin-1-yl)benzoyl)piperidin-4-yl)butyl)-3-(pyridin-3-yl)acrylamide] was 7.32 nM. The result for `O=C(/C=C/c1cccnc1)NCCCCC1CCN(C(=O)c2ccc(N3CCN(CCCCCC#Cc4cccc5c4C(=O)N(C4CCC(=O)NC4=O)C5=O)CC3)cc2)CC1` (stereo not shown) [SIAIS631108, (E)-N-(4-(1-(4-(4-(7-(2-(2,6-dioxopiperidin-3-yl)-1,3-dioxoisoindolin-4-yl)hept-6-yn-1-yl)piperazin-1-yl)benzoyl)piperidin-4-yl)butyl)-3-(pyridin-3-yl)acrylamide] reads 79.7 nM.

In the case of `O=C(/C=C/c1cccnc1)NCCCCC1CCN(C(=O)c2ccc(N3CCN(C(=O)CCOCCOCCNc4cccc5c4C(=O)N(C4CCC(=O)NC4=O)C5=O)CC3)cc2)CC1` (stereo not shown) [SIAIS631109, (E)-N-(4-(1-(4-(4-(3-(2-(2-((2-(2,6-dioxopiperidin-3-yl)-1,3-dioxoisoindolin-4-yl)amino)ethoxy)ethoxy)propanoyl)piperazin-1-yl)benzoyl)piperidin-4-yl)butyl)-3-(pyridin-3-yl)acrylamide], the IC50 amounted to 71.2 nM. This IC50 and that of the molecule before are within 1.5-fold of each other. Take `O=C(/C=C/c1cccnc1)NCCCCC1CCN(C(=O)c2ccc(N3CCN(C(=O)COCCSc4cccc5c4C(=O)N(C4CCC(=O)NC4=O)C5=O)CC3)cc2)CC1` (stereo not shown) [SIAIS631111, (E)-N-(4-(1-(4-(4-(2-(2-((2-(2,6-dioxopiperidin-3-yl)-1,3-dioxoisoindolin-4-yl)thio)ethoxy)acetyl)piperazin-1-yl)benzoyl)piperidin-4-yl)butyl)-3-(pyridin-3-yl)acrylamide]: half-maximal inhibition (IC50) required 64.3 nM. This IC50 and that of the molecule before are within 1.5-fold of each other. In turn, `O=C(/C=C/c1cccnc1)NCCCCC1CCN(C(=O)c2ccc(N3CCN(C(=O)COCCOCCSc4cccc5c4C(=O)N(C4CCC(=O)NC4=O)C5=O)CC3)cc2)CC1` (stereo not shown) [SIAIS631112, (E)-N-(4-(1-(4-(4-(2-(2-(2-((2-(2,6-dioxopiperidin-3-yl)-1,3-dioxoisoindolin-4-yl)thio)ethoxy)ethoxy)acetyl)piperazin-1-yl)benzoyl)piperidin-4-yl)butyl)-3-(pyridin-3-yl)acrylamide] registered an IC50 of 66.7 nM. This IC50 and that of the molecule before are within 1.5-fold of each other. Turning to `O=C(/C=C/c1cccnc1)NCCCCC1CCN(C(=O)c2ccc(N3CCN(C(=O)COCCOCCOCCSc4cccc5c4C(=O)N(C4CCC(=O)NC4=O)C5=O)CC3)cc2)CC1` (stereo not shown) [SIAIS631113, (E)-N-(4-(1-(4-(4-(2-(2-(2-(2-((2-(2,6-dioxopiperidin-3-yl)-1,3-dioxoisoindolin-4-yl)thio)ethoxy)ethoxy)ethoxy)acetyl)piperazin-1-yl)benzoyl)piperidin-4-yl)butyl)-3-(pyridin-3-yl)acrylamide], the IC50 is 68.1 nM. The IC50 values of the last two molecules are within 1.5-fold of each other. `O=C(/C=C/c1cccnc1)NCCCCC1CCN(C(=O)c2ccc(N3CCN(C(=O)COCCOCCOCCOCCSc4cccc5c4C(=O)N(C4CCC(=O)NC4=O)C5=O)CC3)cc2)CC1` (stereo not shown) [SIAIS631114, (E)-N-(4-(1-(4-(4-(14-((2-(2,6-dioxopiperidin-3-yl)-1,3-dioxoisoindolin-4-yl)thio)-3,6,9,12-tetraoxatetradecanoyl)piperazin-1-yl)benzoyl)piperidin-4-yl)butyl)-3-(pyridin-3-yl)acrylamide] returned an IC50 of 66.5 nM.
